# Data reported in patent US10544130B2, “Metallo-beta-lactamase inhibitors” (priority 2015, dated 2020).
# System: Pseudomonas aeruginosa PAO1 MB9798 (efflux+, IMP-1)
# Conditions: ratio MITC95 PA 9798/MITC95 PA 9799; imipenem at 2 μg/mL
# Method in brief: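 Isogenic PAO1 pair (efflux+ MB9798, efflux− MB9799, both IMP-1) tested by microbroth MIC with fixed imipenem and/or ceftazidime, usually at CLSI breakpoint, plus fixed class A/C inhibitor against AmpC. MBL inhibitor titrated; concentration restoring susceptibility recorded and fold difference between strains taken as efflux extent.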
row,Compound,Efflux ratio
1,"CO[C@H]1CNC[C@@H]1NS(=O)(=O)c1ccc(-c2cccc3sc(N)nc23)c(-c2nnn[nH]2)c1S(N)(=O)=O.O=C(O)C(F)(F)F [Example 108, (3S,4S)-3-(4-(2-aminobenzo[d]thiazol-4-yl)-2-sulfamoyl-3-(1H-tetrazol-5-yl)phenylsulfonamido)-4-methoxypyrrolidin-1-ium 2,2,2-trifluoroacetate]",1.00
2,"NS(=O)(=O)c1c(S(=O)(=O)N[C@H]2C[C@H](N)C2)ccc(-c2cccc3[nH]cnc23)c1-c1nn[nH]n1 [Example 200, N^1-((1r,3r)-3-aminocyclobutyl)-4-(1H-benzo[d]imidazol-4-yl)-3-(2H-tetrazol-5-yl)benzene-1,2-disulfonamide]",1.00
3,"NS(=O)(=O)c1c(S(=O)(=O)N[C@H]2CCNC2)ccc(-c2cccc3[nH]cnc23)c1-c1nn[nH]n1 [Example 197, 4-(1H-benzo[d]imidazol-4-yl)-N^1—((S)-pyrrolidin-3-yl)-3-(2H-tetrazol-5-yl)benzene-1,2-disulfonamide]",1.00
4,"NS(=O)(=O)c1c(S(=O)(=O)N[C@@H]2CCNC2)ccc(-c2ccc3nonc3c2)c1-c1nnn[nH]1 [Example 133, (R)-4-(benzo[c][1,2,5]oxadiazol-5-yl)-N1-(pyrrolidin-3-yl)-3-(1H-tetrazol-5-yl)benzene-1,2-disulfonamide]",8.00
5,"NCCNS(=O)(=O)c1ccc(-c2cccc3[nH]c(N)nc23)c(-c2nn[nH]n2)c1S(N)(=O)=O [Example 12, 4-(2-amino-1H-benzo[d]imidazol-4-yl)-N^1-(2-aminoethyl)-3-(2H-tetrazol-5-yl)benzene-1,2-disulfonamide]",0.75
6,"Nc1nc(-c2cccc(-c3ccc(S(=O)(=O)N[C@@H]4CCNC4)c(S(N)(=O)=O)c3-c3nn[nH]n3)c2)n[nH]1 [Example 231, (R)-3′-(5-amino-1H-1,2,4-triazol-3-yl)-N4-(pyrrolidin-3-yl)-2-(2H-tetrazol-5-yl)-[1,1′-biphenyl]-3,4-disulfonamide]",1.00
7,"Nc1nc2c(-c3ccc(S(=O)(=O)NC4CCc5nccn5C4)c(S(N)(=O)=O)c3-c3nnn[nH]3)cccc2s1 (stereo not drawn) [Example 35, 4-(2-amino-1,3-benzothiazol-4-yl)-N1-(5,6,7,8-tetrahydroimidazo[1,2-a]pyridin-6-yl)-3-(1H-tetrazol-5-yl)benzene-1,2-disulfonamide]",2.00
8,"Nc1nc2c(-c3ccc(S(=O)(=O)NCC4(F)CNC4)c(S(N)(=O)=O)c3-c3nnn[nH]3)cccc2s1.O=CO [Example 91, 3-(((4-(2-aminobenzo[d]thiazol-4-yl)-2-sulfamoyl-3-(1H-tetrazol-5-yl)phenyl)sulfonamido)methyl)-3-fluoroazetidin-1-ium formate]",1.00
9,"Nc1nc2c(-c3ccc(S(=O)(=O)N[C@@H]4CNC[C@@H]4F)c(S(N)(=O)=O)c3-c3nnn[nH]3)cccc2s1 [Example 58, 4-(2-amino-1,3-benzothiazol-4-yl)-N1-[(3R,4S)-4-fluoropyrrolidin-3-yl]-3-(1H-tetrazol-5-yl)benzene-1,2-disulfonamide]",1.00
10,"CNC(=O)CNS(=O)(=O)c1ccc(-c2cccc3sc(N)nc23)c(-c2nnn[nH]2)c1S(N)(=O)=O [Example 23, N^2-{[4-(2-amino-1,3-benzothiazol-4-yl)-2-sulfamoyl-3-(1H-tetrazol-5-yl)phenyl]sulfonyl}-N-methylglycinamide]",1.00
11,"COc1ccnc(CNS(=O)(=O)c2ccc(-c3cccc4sc(N)nc34)c(-c3nnn[nH]3)c2S(N)(=O)=O)n1 [Example 34, 4-(2-amino-1,3-benzothiazol-4-yl)-N1-[(4-methoxypyrimidin-2-yl)methyl]-3-(1H-tetrazol-5-yl)benzene-1,2-disulfonamide]",4.00
12,"NS(=O)(=O)c1c(S(=O)(=O)N[C@@H]2CCNC2)ccc(-c2cccc3[nH]cnc23)c1-c1nn[nH]n1 [Example 193, 4-(1H-benzo[d]imidazol-4-yl)-N1-((R)-pyrrolidin-3-yl)-3-(2H-tetrazol-5-yl)benzene-1,2-disulfonamide]",1.00
